Laboratory results: patent publication EP0642343B1, “Acridine carboxamides for the treatment of cancer” (XENOVA LIMITED, priority 1992, dated 1993)
“And” between values parts separate entries of the source, which are not always exact repeats. Identical values can stand only once. Like-named read-outs stand apart in the source and are kept apart here.

What was measured:
human cell lines = experiment: Cytotoxicity under continuous drug exposure, mean over human cell lines; format: cell-based; conditions: continuous drug exposure over approx. 5 cell doubling times, read-out: mean IC50 value for human cell lines
Procedure: The latter value compared with 2 µM for the 4-pyridyl-quinoline analogue, 0.76 µM for amsacrine, 0.1 µM for the amsacrine analogue 4'-(9-[4-[N-methylcarboxamido]-5-methyl]-acridinylamino)-methanesulphon-m-anisidide ("CI-921") and 81 µM for etoposide.

[1] = tested on: P388 murine leukaemia (P/ACTD); experiment: Sensitivity of multidrug resistant P388 subline in vitro; format: cell-based; conditions: P-glycoprotein positive multidrug resistant subline
Procedure: A multidrug resistant subline of P388 murine leukaemia (P/ACTD) was tested for sensitivity to DACA. This line was cross-resistant to actinomycin D, doxo-rubicin, mitoxantrone, etoposide and vincristine. Its resistance to vincristine was overcome by the presence of verapamil (10 µM). It stained for the presence of P-glycoprotein, consistent with the presence of transport-mediated multidrug resistance.

[2] = tested on: advanced colon 38 tumours; experiment: Tumour growth delay, advanced subcutaneous colon 38 tumours in mice; format: in vivo
Procedure: Colon 38 carcinoma was obtained from the Mason Research Institute (Worchester, MA, USA) and was grown in BDF1 hosts. Tumour fragments (1 mm^3) were implanted subcutaneously in anaesthetised mice. Tumours had grown to the appropriate size 9 days after implantation. A melanoma tumour line (WADH) was developed in the Cancer Research Laboratory. Tumour cells were grown in culture and 1 x 10^6 cells were implanted intradermally into the flank of nude (C57BI/J genetic background) mice. Mice were grown under sterile surroundings until tumours were of appropriate size.
Tumours were measured 3x (colon 38) or 2x (xeno-graft) weekly with callipers and tumour volumes calculated as 0.52a^2b, where a and b were the minor and major tumour axes. Tumour growth delays were measured at a time when tumour volumes of treated and control animals had increased by 4-fold.
The effects of five compounds, • (i) DACA • (ii) N-[2-(dimethylamino)ethyl]-9-methoxyphen-azine-1-carboxamide (compound 28 of J. Med. Chem., 1987, 30, 843-851), • (iii) N-[2-(dimethylamino) ethyl]-2-phenylquino-line-8-carboxamide (compound 6 of J. Med. Chem. 1988, 31, 1048-1052), • (iv) N-[2-(dimethylamino)ethyl]-2-(4-pyridyl)-guinoline-8-carboxamide (compound 18 of J. Med. Chem., 1989, 32, 396-401), and • (v) N-[2-(dimethylamino)ethyl]-9-bromo-dibenzo-[1,4]-dioxin-1-carboxamide (compound 20 of J. Med. Chem. 1992, 35, 258-266) on the growth of advanced colon 38 tumours in mice was investigated by implanting tumour fragments subcutaneously and allowing them to grow until they had reached a diameter of 5-8 mm.

[3] = Pharmacokinetic and tissue distribution studies (tritium label, HPLC); format: in vivo; conditions: for tissue concentration: 1 h after intraperitoneal 400 µmol/kg, HPLC; for AUC: ip, 400 umol/kg, intraperitoneal 400 µmol/kg
Excerpt: We believe that administration of DACA at the new divided dose-high constituent dose frequency regime mentioned above will be helpful in combating brain tumours.

[4] = tested on: panel of cell lines encompassing a number of tumour types; experiment: NCI cell line panel, growth inhibition by protein staining; format: cell-based; conditions: data provided by the National Cancer Institute
Procedure: Tumour cell lines were cultured in 96-well plates. Growth of NCI cell lines was assessed using sulpho-rhodamine B staining (Skehan P., et al., J. Natl. Cancer Inst. 1990, 82, 1107-1112), that of the leukaemia lines with (4,5-dimethylthiazole-2-yl)-2,5-diphenyltetrazolium (MTT) staining (Mosmann T., J. Immun. Methods 1983, 65, 55-63) and that of the primary human tumour material by ^3H-thymidine incorporation (Marshall E.S., et al., J. Natl. Cancer Inst. 1992, 84, 341-344). Primary tumour material was cultured in 96-well plates in which the wells were coated with agarose to inhibit selectively the growth of normal cells. (Marshall E.S., et al., J. Natl. Cancer Inst. 1992, 84, 341-344). Primary cultures were incubated at 37°C in sealed perspex boxes containing a humidified atmosphere of 5% CO2 and 5% O2 in nitrogen for 7 days. 5-Methyl-[^3H]-thymidine (20 Ci.mmol^-1; 0.04 µCi per well), thymidine and 5-fluorodeoxyuridine (each at final concentrations of 0.5 µM) were added in medium to cultures (20 µl per well) 24 h before terminating the cultures. Cells were aspirated on to glass fibre filters using a multiple automated sample harvester (LKB Wallac OY Beta Harvester). The filter discs were washed for 15 seconds with water, dried, and the amount of tritium retained quantified by liquid scintillation.
IC50 values were defined as in Paull K.D., et al., J. Natl. Cancer Inst. 1989, 81:1088-1092, where growth, as indicated by staining or thymidine incorporation, corresponded to 50% of that of the control cultures. […] Variances of DELTA values were expressed as standard deviations in log10 units. Comparison of DELTA values was made using Pearson correlation coefficients. Resistance factors were defined as the ratios of IC50 values between the resistant line and the parent line. Statistical evaluation was performed either with NCI programmes, with RS/1 software (BBN Research Systems, Cambridge, MA, USA), or with Sigmaplot (Jandel Scientific, San Rafael, CA, USA).

## CN(C)CCNC(=O)c1cccc2cc3ccccc3nc12 [DACA, N-[2-(dimethylamino)ethyl]acridine-4-carboxamide]
Human cell lines
  IC50: 1300 nM
[1]
  sensitivity of P/ACTD line: sensitive
[2]; 100mg/kg each injection, ip, 2 doses, 0, 60 min, listed as (i)
  Growth delay: 10 days and 12 days
[2]; 4 injections at 30 minute intervals, 180 + 120 + 120 + 120 µmol/kg, q7 days x 3
  Growth delay: 21 days
[2]; day 11 after implantation, 3 injections at 4-day intervals
  Growth delay: 4 days
[2]; i.p. single maximum tolerated dose 150 mg/kg body weight, Figure 5
  Growth delay: 5 days
[2]; repetition of divided doses (200 mg/kg), Figure 5
  Growth delay: 23 days
[2]; total dose 100 (mg/kg) ip, single dose (SD)
  Growth delay: 4 days
[2]; total dose 150 ip, 2 doses, 0, 60 min
  Growth delay: 5 days
[2]; total dose 150 ip, SD
  Growth delay: 5 days
[2]; total dose 150x3 ip, SD every week x 3
  Growth delay: 7 days
[2]; total dose 200 ip, 2 doses, 0, 30 min
  Growth delay: 7 days
[2]; total dose 200 ip, 2 doses, 0, 60 min (2 expts)
  Growth delay: 10 days and 12 days
[2]; total dose 200 ip, 2 doses, 0, 24 hours
  Growth delay: 6 days
[2]; total dose 200 ip, 4 doses, 0, 30, 60, 90 min (65 + 45 + 45 + 45 mg/kg)
  Growth delay: 6 days
[2]; total dose 200 ip, SD
  Growth delay (days): toxic
[2]; total dose 200 iv, 1 hour infusion
  Growth delay: 7 days
[2]; total dose 200 iv, 3 hour infusion
  Growth delay: 6.5 days
[2]; total dose 200x3 ip, (4 doses, 0, 30, 60, 90)x3
  Growth delay: 23 days
[2]; tumour 5-8 mm, after adjustment of the administration schedule
  Growth delay: more than 21 days
[2]; tumour 5-8 mm, intermittent schedule 270 mg/kg q7 days x 3
  Growth delay: 3 days
[2]; tumour 5-8 mm, intermittent schedule 400 mg/kg q7 days x 3
  Growth delay: 7 days
[3]; brain
  tissue concentration: 45 µmol/kg
[3]; heart
  tissue concentration: 57 µmol/kg
[3]; brain, read-out: AUC
  AUC: 218 µM·h
[3]; heart, read-out: AUC
  AUC: 147 µM·h
[3]; kidney, read-out: AUC
  AUC: 492 µM·h
[3]; liver, read-out: AUC
  AUC: 547 µM·h
[3]; plasma, read-out: plasma AUC
  AUC: 26.6 µM·h
[3]; kidney
  tissue concentration: 139 µmol/kg
[3]; liver
  tissue concentration: 185 µmol/kg
[3]; tritium-labelled DACA, tissues including brain
  elimination t1/2: 37 to 176 h
[4]
  IC50: 2100 nM
